From patent US20220280594A1, “APPLICATION OF POLYPEPTIDE OR DERIVATIVE THEREOF” (CHENGDU HUITAI BIOMEDICINE CO., LTD., priority 2019, published 2022)
Ends that are not written are not given here. PEG = not defined here

Legend:
[1] = system: human lung cancer cells (A549) subcutaneous xenograft; assay: lung cancer subcutaneous xenograft animal model, intratumoral injection; assay type: in vivo, mice (BALB/c-nu/nu); details: intratumoral 5 mg/kg once every other day, 20 days; for Weight of tumor (g) (mean ± SD): control 1.92 ± 0.13; for Volume of tumor (mm^3) (mean ± SD): control 1700.16 ± 305.72
Description: Experimental animals: 4-6 weeks old female immunodeficiency mice (BALB/c-nu/nu, Beijing Vital River Laboratory Animal Technology Co., Ltd.).
Subcutaneous xenograft animal model. The number of cells inoculated subcutaneously vin mice was about 2×10^6/200 μL. When the volume of the subcutaneous tumor was greater than 100 mm^3, the mice were randomly divided into groups and subjected to treatment. When the mass volume of the tumors in model control group reached 2000 mm^3 or the animal dies, the treatment ended. The animals were dissected, the tumors were taken out, and the weight and volume of the tumors were measured. During the period of the entire experiment, the mice were observed and the body weight was measured every other day.
The method used for the drug efficacy test in the animal model of the subcutaneous xenograft derived from lung cancer cells was as described in Example 5. The tumor cells were human lung cancer cells (A549), and the route of administration was intratumoral injection. There were two groups: the model control group and the polypeptide or its derivative treatment group (N1-N12). The drug dosage of the treatment group was 5 mg/kg, once every other day and the treatment time was 10 days.
The procedure of the efficacy test in this example, route and dosage of administration were the same as in Example 9. The peptides used in the experiment were N13-N32. The treatment time was 20 days.

[2] = system: human liver adenocarcinoma cells (SK-HEP-1); assay: transwell migration assay, SK-HEP-1 cells; assay type: cell-based; details: SK-HEP-1 transwell migration, 10 μM, 24 hours; control group 1 782 ± 108, control group 2 768 ± 86
Description: The Transwell chamber system was used in the transwell cell migration experiment. The chamber has an upper layer and a lower layer, which are separated by an artificial semipermeable membrane in the middle. Cells that have migrated through the semi-permeable membrane will attach to the lower surface of the semi-permeable membrane. The migration ability is evaluated by counting the number of cells on the lower surface of the semi-permeable membrane. The number of cells that have migrated is negatively correlated with the inhibitory effect of the drug on the migration ability of the tumor cells. Transwell migration assay was performed as follows: tumor cells were cultured in vitro, cells in logarithmic growth phase were collected, and cell suspension was prepared with fresh serum-free medium at a density of 2-3×10^5 cells/mL. Cells were inoculated, 100 μL/well cell suspension (serum-free medium) in the upper chamber and 600 μL/well complete culture medium in the lower chamber. After incubated in 37° C., 5% CO2 incubator for 4-5 hours, serum-free medium (100 μL/well) was added to the control group, and serum-free medium containing polypeptide or derivative thereof (N1-N54) was added to the upper chamber of the treatment group (100 μL/well), the final concentration of the peptide or derivative thereof in the upper chamber was 10 μM. The cells were incubated continuously for 24 hours, and then fixed with methanol and stained with crystal violet. Images were taken under a microscope and the number of migrated cells was counted with ImageJ.
This example was a transwell cell migration experiment to evaluate the inhibitory effect of the polypeptide or derivative thereof (N1-N54) on the migration ability of human liver adenocarcinoma cells (SK-HEP-1). The experimental method was as described in Example 3.

[3] = system: human liver adenocarcinoma cells (SK-HEP-1); assay: transwell invasion assay, SK-HEP-1 cells; assay type: cell-based; details: SK-HEP-1 transwell invasion, 10 μM, 24 hours; control group 767 ± 91
Excerpt: The Transwell chamber system was used in the transwell cell invasion experiment. The chamber has an upper layer and a lower layer, which are separated by an artificial semipermeable membrane in the middle. The upper surface of the semipermeable membrane is coated with a layer of artificial matrigel to simulate extracellular matrix. Cells that have invaded through the matrigel and semi-permeable membrane will attach to the lower surface of the semi-permeable membrane. The invasion ability is evaluated by counting the number of cells on the lower surface of the semi-permeable membrane. The number of cells that have invaded is negatively correlated with the inhibitory effect of the drug on the invasion ability of the tumor cells. Transwell invasion assay was performed as follows: tumor cells were cultured in vitro, cells in logarithmic growth phase were collected, and cell suspension was prepared with fresh serum-free medium at a density of 2-3×10^5 cells/mL. Cells were inoculated, 100 μL/well cell suspension (serum-free medium) in the upper chamber and 600 μL/well complete culture medium in the lower chamber. After incubated in 37° C., 5% CO2 incubator for 4-5 hours, serum-free medium (100 μL/well) was added to the control group, and serum-free medium containing polypeptide or derivative thereof (N1-N54) was added to the upper chamber of the treatment group (100 μL/well), the final concentration of the peptide or derivative thereof in the upper chamber was 10 μM. The cells were incubated continuously for 24 hours, and then fixed with methanol and stained with crystal violet. Images were taken under a microscope and the number of invaded cells was counted with ImageJ.
This example was a transwell cell invasion experiment to evaluate the inhibitory effect of the polypeptide or derivative thereof (N1-N54) on the invasion ability of human liver adenocarcinoma cells (SK-HEP-1). The experimental method was as described in Example 4.

| Substance | Weight of tumor (g) (mean ± SD) [1] | Volume of tumor (mm^3) (mean ± SD) [1] | Number of cells (mean ± SD, P), migrated cells [2] | Number of cells (mean ± SD, P), invaded cells [3] |
| --- | --- | --- | --- | --- |
| N14: SEQ ID NO: 1 with deletion of positions 1-5 and addition of one amino acid at the carboxyl terminal (LAKENVTQDAEDNC) | 1.09 ± 0.29 g | 913.68 ± 219.62 mm^3 | 61 ± 14,**** | 329 ± 54,*** |
| N15: SEQ ID NO: 1 with substitution N18R and addition of one amino acid to the carboxyl terminal (YRVRFLAKENVTQDAEDRC) | 0.63 ± 0.13 g | 793.32 ± 173.3 mm^3 | 131 ± 10,**** | 418 ± 36,** |
| N16: SEQ ID NO: 1 with substitution A7R and addition of one amino acid at the carboxyl terminus (YRVRFLRKENVTQDAEDNC) | 0.83 ± 0.27 g | 897.27 ± 176.16 mm^3 | 74 ± 18,**** | 398 ± 43,*** |
| N17: SEQ ID NO: 1 with addition of two amino acids to the carboxyl terminal (YRVRFLAKENVTQDAEDNCT) | 0.76 ± 0.26 g | 893.18 ± 234.75 mm^3 | 50 ± 5,**** | 165 ± 28,**** |
| N18: SEQ ID NO: 1 with addition of one amino acid at the amino terminal and one at the carboxyl terminal (FYRVRFLAKENVTQDAEDNC) | 0.75 ± 0.26 g | 969.37 ± 243.04 mm^3 | 96 ± 28,**** | 262 ± 21,**** |
| N19: SEQ ID NO: 1 with deletion of positions 1-5 and 15-18 and addition of two amino acids at the carboxyl terminal (LAKENVTQDRC) | 0.81 ± 0.29 g | 963.18 ± 185.31 mm^3 | 82 ± 6,**** | 348 ± 40,*** |
| N20: SEQ ID NO: 1 with addition of one amino acid at the amino terminal and deletion of position 18 (RYRVRFLAKENVTQDAED) | 0.89 ± 0.22 g | 1037.56 ± 256.6 mm^3 | 299 ± 35,**** | 242 ± 22,**** |
| N21: SEQ ID NO: 1 with deletion of positions 1-5 and 15-18 and addition of one amino acid at the amino terminal (SLAKENVTQD) | 0.9 ± 0.28 g | 967.35 ± 247.89 mm^3 | 34 ± 7,**** | 356 ± 60,*** |
| N22: SEQ ID NO: 1 with substitution A7R, deletion of three amino acids at the amino terminal and of positions 15-18 (RFLRKENVTQD) | 0.83 ± 0.33 g | 835.73 ± 184.67 mm^3 | 42 ± 17,**** | 430 ± 51,** |
| N23: SEQ ID NO: 1 with substitution A7R, deletion of position 11 and of positions 15-18 (YRVRFLRKENTQDAED) | 0.83 ± 0.29 g | 838.73 ± 218 mm^3 | 276 ± 24,**** | 456 ± 45,** |
| N24: SEQ ID NO: 1 with substitution A7R, deletion of positions 1-2 and of position 18 (VRFLRKENVTQDAED) | 0.83 ± 0.29 g | 908.37 ± 256.24 mm^3 | 265 ± 24,**** | 332 ± 30,*** |
| N25: SEQ ID NO: 1 with substitution N18R and addition of two amino acids at the carboxyl terminal (YRVRFLAKENVTQDAEDRCT) | 0.71 ± 0.18 g | 958.87 ± 351.9 mm^3 | 58 ± 15,**** | 411 ± 30,*** |
| N26: SEQ ID NO: 1 with substitution A15R, addition of one amino acid at the amino terminal and one at the carboxyl terminal (FYRVRFLAKENVTQDREDNC) | 0.8 ± 0.22 g | 1053.55 ± 175.83 mm^3 | 68 ± 19,**** | 371 ± 27,*** |
| N27: SEQ ID NO: 1 with addition of one amino acid at the carboxyl terminal and PEG modification at the carboxyl terminal (YRVRFLAKENVTQDAEDNC-{PEG}; reading uncertain) | 0.95 ± 0.22 g | 1059.51 ± 161.22 mm^3 | 469 ± 56,** | 369 ± 52,*** |
| N28: SEQ ID NO: 1 with deletion of positions 1-2 and 18 and PEG modification at the amino terminal ({PEG}-VRFLAKENVTQDAED; reading uncertain) | 0.81 ± 0.24 g | 1055.02 ± 222.45 mm^3 | 51 ± 25,**** | 214 ± 31,**** |
| N29: SEQ ID NO: 1 with deletion of positions 1-5 and 15-18 and PEG modification at the amino terminal ({PEG}-LAKENVTQD; reading uncertain) | 0.82 ± 0.22 g | 949 ± 227.4 mm^3 | 254 ± 14,**** | 322 ± 56,*** |
| N30: SEQ ID NO: 1 with deletion of positions 1-5 and 15-18 and PEG modification at the carboxyl terminal (LAKENVTQD-{PEG}; reading uncertain) | 0.9 ± 0.22 g | 913.9 ± 204.07 mm^3 | 156 ± 22,**** | 85 ± 20,**** |
